Where “and” joins values, the source holds several entries; their conditions need not be identical. Equal values may be shown once. Inconclusive results and toxic doses are left out.

This assay concerns P388 leukemia ip, CD2F1 mice, survival T/C. Kind of assay: NCI In Vivo Anticancer Drug Screen. Data for tumor model P388 Leukemia (intraperitoneal) in CD2F1 (CDF1) mice. To be noted: endpoint: median survival time, higher = longer survival. Put shortly:
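Mice carrying the transplanted tumor received test compound or vehicle. Survival was recorded in each group, and the value is the treated-group measurement divided by that of the vehicle-treated control group.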

Where [1] appears, read: dose: 6.25 mg/kg/injection, schedule: Q04DX003 (ip), vehicle: saline.
Where [2] appears, read: dose: 25.0 mg/kg/injection, schedule: Q04DX003 (ip), vehicle: saline.
Where [3] appears, read: dose: 33.0 mg/kg/injection, schedule: Q04DX003 (ip), vehicle: saline.
Where [4] appears, read: dose: 50.0 mg/kg/injection, schedule: Q01DX009 (ip), vehicle: saline.
Setting [5] is: dose: 50.0 mg/kg/injection, schedule: Q04DX003 (ip), vehicle: saline.
Where [6] appears, read: dose: 75.0 mg/kg/injection, schedule: Q04DX003 (ip), vehicle: saline.
Setting [7] is: dose: 60.0 mg/kg/injection, schedule: Q01DX005 (ip), vehicle: saline with Tween-80.
[8] abbreviates: dose: 120.0 mg/kg/injection, schedule: Q01DX005 (ip), vehicle: saline with Tween-80.
[9] abbreviates: dose: 240.0 mg/kg/injection, schedule: Q01DX005 (ip), vehicle: saline with Tween-80.
Where [10] appears, read: dose: 50.0 mg/kg/injection, schedule: Q01DX009 (ip), vehicle: Klucel (hydroxypropylcellulose) (HPC).
[11] abbreviates: dose: 100.0 mg/kg/injection, schedule: Q01DX009 (ip), vehicle: Klucel (hydroxypropylcellulose) (HPC).
[12] abbreviates: dose: 100.0 mg/kg/injection, schedule: Q04DX003 (ip), vehicle: saline.
Setting [13] is: dose: 50.0 mg/kg/injection, schedule: Q01DX005 (ip), vehicle: saline with Tween-80.
[14] abbreviates: dose: 100.0 mg/kg/injection, schedule: Q01DX005 (ip), vehicle: saline with Tween-80.
The mark [15] stands for this setting: dose: 200.0 mg/kg/injection, schedule: Q01DX005 (ip), vehicle: saline with Tween-80.

Regarding `CN(c1ccccc1)c1cc2c(cc1[N+](=O)[O-])no[n+]2[O-]`, the T/C was 100 % of control and 86 % of control and 97 % of control (dose: 7.5 mg/kg/injection, schedule: Q01DX009 (ip), vehicle: saline); 107 % of control and 94 % of control (dose: 15.0 mg/kg/injection, schedule: Q01DX009 (ip), vehicle: saline); 105 % of control and 95 % of control (dose: 30.0 mg/kg/injection, schedule: Q01DX009 (ip), vehicle: saline); 100 % of control and 101 % of control and 92 % of control (dose: 60.0 mg/kg/injection, schedule: Q01DX009 (ip), vehicle: saline).
`COCCOP(=O)(N1CC1)N1CC1`: the T/C is 118 % of control under setting [1]; 181 % of control (dose: 25.0 mg/kg/injection, schedule: Q01DX009 (ip), vehicle: saline); 177 % of control under setting [2]; 150 % of control under setting [3]; 122 % of control under setting [4]; 175 % of control and 190 % of control under setting [5]. The T/C under setting [6] was 120 % of control.
For the compound `COc1cc(CC(N)C(C)=O)cc(OC)c1OC` (centres undefined), the T/C under setting [4] is 99 % of control; the T/C (dose: 100.0 mg/kg/injection, schedule: Q01DX009 (ip), vehicle: saline) is 100 % of control; the T/C (dose: 200.0 mg/kg/injection, schedule: Q01DX009 (ip), vehicle: saline) is 100 % of control.
With `CC(=O)Nc1cccc(N)c1`, the T/C is 95 % of control under setting [3], 95 % of control under setting [5] and 100 % of control under setting [6].
With `Cc1cc(C(=O)O)ccc1S(=O)(=O)F`, the T/C by setting is: under setting [7], 101 % of control; under setting [8], 105 % of control.
In the case of `O=C1C2C3C=CC(C2C(=O)N1CN1CCSCC1)C1C2C(=O)N(CN4CCSCC4)C(=O)C2C31` (centres undefined), the T/C was 99 % of control (dose: 25.0 mg/kg/injection, schedule: Q01DX009 (ip), vehicle: saline with Tween-80); 116 % of control and 121 % of control (dose: 50.0 mg/kg/injection, schedule: Q01DX009 (ip), vehicle: saline with Tween-80); 165 % of control (dose: 100.0 mg/kg/injection, schedule: Q01DX009 (ip), vehicle: saline with Tween-80); 166 % of control and 194 % of control (dose: 200.0 mg/kg/injection, schedule: Q01DX009 (ip), vehicle: saline with Tween-80).
For `CC(=O)CCC(=O)CC(=O)CCC(=O)Nc1cc(Cl)ccc1Cl`, the T/C runs as follows: under setting [7], 107 % of control; under setting [8], 106 % of control; under setting [9], 101 % of control.
As for `Cc1c(Cl)cccc1N=Cc1cccs1`, the T/C under setting [10] was 105 % of control; the T/C under setting [11] is 105 % of control; the T/C (dose: 200.0 mg/kg/injection, schedule: Q01DX009 (ip), vehicle: Klucel (hydroxypropylcellulose) (HPC)) was 105 % of control.
Consider `COC1C(C)OC(OC2CC(C)(O)Cc3cc4c(c(O)c32)C(=O)c2c(O)cc3c(c2C4=O)OC2OC3(C)C(O)C(N(C)C=O)C2O)C(OC)C1(C)OC` (centres undefined), for which the T/C is 100 % of control (dose: 3.12 mg/kg/injection, schedule: Q04DX003 (ip), vehicle: other); 97 % of control (dose: 6.25 mg/kg/injection, schedule: Q04DX003 (ip), vehicle: other); 94 % of control (dose: 12.5 mg/kg/injection, schedule: Q04DX003 (ip), vehicle: other); 91 % of control (dose: 25.0 mg/kg/injection, schedule: Q04DX003 (ip), vehicle: other); 95 % of control (dose: 50.0 mg/kg/injection, schedule: Q04DX003 (ip), vehicle: other).
As for `O=C(c1ccccc1)N1C2C=C(c3ccccc3)CC1CC2` (centres undefined), the T/C (dose: 100.0 mg/kg/injection, schedule: Q04DX003 (ip), vehicle: Klucel (hydroxypropylcellulose) (HPC)) was 111 % of control; the T/C (dose: 200.0 mg/kg/injection, schedule: Q04DX003 (ip), vehicle: Klucel (hydroxypropylcellulose) (HPC)) was 97 % of control; the T/C (dose: 400.0 mg/kg/injection, schedule: Q04DX003 (ip), vehicle: Klucel (hydroxypropylcellulose) (HPC)) is 94 % of control.
Take `O=C(NCCN1CCCCC1)c1ccc(Cl)cc1Cl`: the T/C under setting [10] was 101 % of control and the T/C under setting [11] is 98 % of control.
With `O=c1[nH]c(=O)n(COCc2ccccc2)cc1F`, the T/C under setting [2] is 98 % of control; the T/C under setting [5] was 98 % of control; the T/C under setting [12] was 98 % of control and 97 % of control; the T/C (dose: 200.0 mg/kg/injection, schedule: Q04DX003 (ip), vehicle: saline) was 95 % of control; the T/C (dose: 400.0 mg/kg/injection, schedule: Q04DX003 (ip), vehicle: saline) is 98 % of control.
Consider `COc1ccc2c(c1OC)C(=O)O[C@@H]2[C@H]1c2c(cc3c(c2OC)OCO3)CCN1C`, for which the T/C reads like this: (dose: 62.5 mg/kg/injection, schedule: Q01DX010 (ip), vehicle: saline) 100 % of control; (dose: 125.0 mg/kg/injection, schedule: Q01DX010 (ip), vehicle: saline) 95 % of control.
Take `CN(C)CCS(=O)(=O)O`: the T/C (dose: 1.56 mg/kg/injection, schedule: Q04DX003 (ip), vehicle: saline) is 100 % of control; the T/C (dose: 3.12 mg/kg/injection, schedule: Q04DX003 (ip), vehicle: saline) is 100 % of control; the T/C under setting [1] is 88 % of control; the T/C (dose: 12.5 mg/kg/injection, schedule: Q04DX003 (ip), vehicle: saline) was 94 % of control; the T/C under setting [5] was 97 % of control; the T/C under setting [12] was 102 % of control.
As to `CCOC(=O)C(Cc1ccc(O)cc1)NC(=O)C(CCCCN)N(C(=O)OCc1ccccc1)C(=O)OCc1ccccc1` (centres undefined), the T/C reads like this: under setting [13], 96 % of control; under setting [14], 94 % of control; under setting [15], 92 % of control.
`Nc1nc2[nH]c(=O)[nH]c2c(=O)[nH]1`: the T/C runs as follows: under setting [13], 94 % of control; under setting [14], 93 % of control; under setting [15], 91 % of control.
`COc1cc2c3cc1Oc1c(OC)c(OC)cc4c1[C@@H](Cc1ccc(O)c(c1)Oc1ccc(cc1)C[C@@H]3N(C)CC2)N(C)CC4`: the T/C is, setting by setting: (dose: 60.0 mg/kg/injection, schedule: Q01DX005 (ip), vehicle: Klucel (hydroxypropylcellulose) (HPC)) 102 % of control and 106 % of control; (dose: 120.0 mg/kg/injection, schedule: Q01DX005 (ip), vehicle: Klucel (hydroxypropylcellulose) (HPC)) 118 % of control and 113 % of control.
With `O=C1OC(CO)C(O)C2OC(=O)c3c(c(O)c(O)c(O)c3-c3c(O)c(O)c(O)c4c3C(=O)OC2C4O)-c2c1cc(O)c(O)c2O` (centres undefined), the T/C was 105 % of control (dose: 1.56 mg/kg/injection, schedule: Q01DX009 (ip), vehicle: saline); 105 % of control (dose: 3.12 mg/kg/injection, schedule: Q01DX009 (ip), vehicle: saline); 90 % of control (dose: 6.25 mg/kg/injection, schedule: Q01DX009 (ip), vehicle: saline).
On to `C#CC(=O)CCC`, for which the T/C runs as follows: (dose: 3.75 mg/kg/injection, schedule: Q01DX005 (ip), vehicle: saline with Tween-80) 113 % of control; (dose: 7.5 mg/kg/injection, schedule: Q01DX005 (ip), vehicle: saline with Tween-80) 106 % of control; (dose: 15.0 mg/kg/injection, schedule: Q01DX005 (ip), vehicle: saline with Tween-80) 105 % of control.
Turning to `CN=C1N=C(c2ccc(C(C)(C)C)cc2)C(O)(c2ccc(C(C)(C)C)cc2)N1` (centres undefined), the T/C is, setting by setting: (dose: 25.0 mg/kg/injection, schedule: Q04DX002 (ip), vehicle: saline with Tween-80) 104 % of control; (dose: 50.0 mg/kg/injection, schedule: Q04DX002 (ip), vehicle: saline with Tween-80) 117 % of control.
Turning to `CC1=C(c2ccccc2)C(=O)OC1(c1ccccc1)c1ccccc1`, the T/C (dose: 50.0 mg/kg/injection, schedule: Q01DX001 (ip), vehicle: Klucel (hydroxypropylcellulose) (HPC)) was 91 % of control; the T/C (dose: 100.0 mg/kg/injection, schedule: Q01DX001 (ip), vehicle: Klucel (hydroxypropylcellulose) (HPC)) was 88 % of control; the T/C (dose: 200.0 mg/kg/injection, schedule: Q01DX001 (ip), vehicle: Klucel (hydroxypropylcellulose) (HPC)) was 89 % of control.
For the compound `Cc1cc2[nH]c3c(C#N)c(O)c(C(C)C)c(=O)n3c2cc1C`, the T/C by setting is: under setting [7], 103 % of control; under setting [8], 100 % of control; under setting [9], 94 % of control.

Values taken from PubChem BioAssay AID330 (DTP/NCI, 2004).
